The subject of assay [1] is glycolipid biosynthesis. As to conditions: as disclosed in EP-A-0698012; cited from earlier work.
For assay [2], the target named is Human α-glucosidase. The assay can be described thus: Human α-glucosidase assay, p-nitrophenyl linked substrates. It is filed as biochemical.
The target in assay [3] is Jack bean β-galactosidase. The assay can be described thus: Jack bean β-galactosidase inhibition. It is filed as biochemical.
The target in assay [4] is T1, Mouse ceramide β-galactosidase (Mus musculus, UniProt P54818).
T1 sequence (P54818 43-684): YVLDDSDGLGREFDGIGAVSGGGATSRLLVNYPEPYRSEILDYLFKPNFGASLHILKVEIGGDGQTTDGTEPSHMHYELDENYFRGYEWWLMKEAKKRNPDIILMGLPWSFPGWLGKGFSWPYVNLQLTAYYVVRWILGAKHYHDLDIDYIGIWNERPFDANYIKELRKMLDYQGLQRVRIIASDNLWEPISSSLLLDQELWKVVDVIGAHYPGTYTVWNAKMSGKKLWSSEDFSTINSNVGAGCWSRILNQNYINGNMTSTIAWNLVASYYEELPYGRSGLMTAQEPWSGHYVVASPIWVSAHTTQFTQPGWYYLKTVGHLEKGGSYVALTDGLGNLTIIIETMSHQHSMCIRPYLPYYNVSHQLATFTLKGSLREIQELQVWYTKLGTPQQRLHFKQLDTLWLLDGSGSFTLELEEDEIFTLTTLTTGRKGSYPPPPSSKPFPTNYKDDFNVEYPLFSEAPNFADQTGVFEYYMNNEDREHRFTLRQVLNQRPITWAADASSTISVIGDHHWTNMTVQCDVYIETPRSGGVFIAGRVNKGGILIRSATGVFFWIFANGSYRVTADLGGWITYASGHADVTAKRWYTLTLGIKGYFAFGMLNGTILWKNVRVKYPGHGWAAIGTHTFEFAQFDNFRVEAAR
The assay can be described thus: Mouse ceramide β-galactosidase inhibition. The assay is classed as biochemical.

The target of assay [5] is Porcine intestinal lactase (Sus scrofa, UniProt F1S0D7). Nature of the assay: Porcine intestinal lactase inhibition. The assay is classed as biochemical. The following applies: read-out: Porcine intestinal lactase (Ki μM).
Assay [6] addresses T2, Human β-galactosidase (Homo sapiens, UniProt P16278).
T2 sequence (P16278 29-677): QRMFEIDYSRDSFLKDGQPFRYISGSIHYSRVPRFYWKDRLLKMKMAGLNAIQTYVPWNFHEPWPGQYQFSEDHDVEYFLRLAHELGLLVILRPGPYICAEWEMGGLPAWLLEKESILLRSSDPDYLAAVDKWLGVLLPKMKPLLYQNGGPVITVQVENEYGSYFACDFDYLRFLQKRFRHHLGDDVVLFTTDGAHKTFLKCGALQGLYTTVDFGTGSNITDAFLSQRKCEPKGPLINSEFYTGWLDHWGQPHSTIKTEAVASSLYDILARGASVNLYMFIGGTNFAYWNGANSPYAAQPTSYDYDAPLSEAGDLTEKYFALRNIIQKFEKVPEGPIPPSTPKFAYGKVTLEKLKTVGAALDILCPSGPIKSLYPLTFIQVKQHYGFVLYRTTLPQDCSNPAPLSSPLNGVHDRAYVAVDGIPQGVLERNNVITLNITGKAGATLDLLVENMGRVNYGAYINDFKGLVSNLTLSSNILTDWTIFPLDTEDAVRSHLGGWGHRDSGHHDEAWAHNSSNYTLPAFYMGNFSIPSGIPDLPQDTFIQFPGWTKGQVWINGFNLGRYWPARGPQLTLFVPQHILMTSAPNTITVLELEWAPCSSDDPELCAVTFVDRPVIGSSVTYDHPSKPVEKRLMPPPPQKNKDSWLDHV
The assay can be described thus: Human β-galactosidase assay. The assay is classed as biochemical. The procedure: The glucosidase assays were performed as described (Biochemical Genetics, A Laboratory Manual, Oxford University Press) except that p-nitrophenyl linked substrates were used instead of methylumbelliferone linked substrates.

In assay [7] the target is T3, human recombinant GCS (Homo sapiens, UniProt Q16739).
T3 construct: made in house; host or cells: insect cells
T3 sequence (Q16739 1-394): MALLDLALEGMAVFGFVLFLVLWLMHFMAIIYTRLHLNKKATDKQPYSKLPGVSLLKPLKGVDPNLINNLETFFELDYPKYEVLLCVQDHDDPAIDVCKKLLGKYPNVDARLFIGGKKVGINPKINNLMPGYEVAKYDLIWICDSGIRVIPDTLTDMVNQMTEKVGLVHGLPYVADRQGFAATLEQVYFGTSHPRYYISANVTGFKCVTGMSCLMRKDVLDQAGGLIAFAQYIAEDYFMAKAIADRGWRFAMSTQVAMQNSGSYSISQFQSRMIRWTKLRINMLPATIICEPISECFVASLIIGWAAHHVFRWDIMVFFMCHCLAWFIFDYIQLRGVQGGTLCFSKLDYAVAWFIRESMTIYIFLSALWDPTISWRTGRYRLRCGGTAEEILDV
Nature of the assay: Human GCS inhibition, recombinant enzyme expressed in insect cells. It is filed as biochemical.

Molecules are shown by their SMILES. Bounds are passed on as bounds.

Sequence of Porcine intestinal lactase (F1S0D7 840-1898): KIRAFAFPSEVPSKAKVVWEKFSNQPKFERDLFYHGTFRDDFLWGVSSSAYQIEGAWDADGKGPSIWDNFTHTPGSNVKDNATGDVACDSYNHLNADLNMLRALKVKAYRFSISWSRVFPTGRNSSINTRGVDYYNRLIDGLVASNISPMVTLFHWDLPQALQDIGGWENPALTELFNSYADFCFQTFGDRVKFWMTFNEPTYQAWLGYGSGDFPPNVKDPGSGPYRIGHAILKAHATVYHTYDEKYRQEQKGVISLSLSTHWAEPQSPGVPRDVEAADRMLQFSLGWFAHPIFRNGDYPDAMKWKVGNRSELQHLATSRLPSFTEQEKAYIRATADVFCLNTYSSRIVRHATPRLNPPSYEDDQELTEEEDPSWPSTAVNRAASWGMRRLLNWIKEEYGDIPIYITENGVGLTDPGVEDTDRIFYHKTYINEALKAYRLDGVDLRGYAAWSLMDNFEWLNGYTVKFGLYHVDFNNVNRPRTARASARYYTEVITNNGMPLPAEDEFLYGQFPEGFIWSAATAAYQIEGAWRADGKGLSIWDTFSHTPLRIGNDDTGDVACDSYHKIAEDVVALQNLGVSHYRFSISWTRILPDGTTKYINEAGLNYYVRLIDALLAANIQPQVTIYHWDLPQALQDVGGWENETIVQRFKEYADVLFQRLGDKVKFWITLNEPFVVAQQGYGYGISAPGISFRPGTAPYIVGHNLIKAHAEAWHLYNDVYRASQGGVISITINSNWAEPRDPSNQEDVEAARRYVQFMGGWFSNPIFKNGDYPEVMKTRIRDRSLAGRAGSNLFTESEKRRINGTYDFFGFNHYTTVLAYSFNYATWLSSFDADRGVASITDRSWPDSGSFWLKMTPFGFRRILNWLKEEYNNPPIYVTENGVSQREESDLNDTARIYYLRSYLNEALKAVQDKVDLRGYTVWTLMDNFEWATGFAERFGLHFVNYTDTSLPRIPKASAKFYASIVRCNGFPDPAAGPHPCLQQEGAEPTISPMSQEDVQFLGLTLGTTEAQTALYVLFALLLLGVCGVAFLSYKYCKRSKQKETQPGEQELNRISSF

For the compound `CCCCN1C[C@@H](O)[C@H](O)[C@H](O)[C@@H]1C` [NB-DFJ], in assay [1], the “inhibition of glycolipid biosynthesis” value is on record as “do not act as inhibitors”. With `CCCCN1C[C@H](O)[C@@H](O)[C@H](O)[C@H]1CO` [NB-DNJ, N-butyldeoxynojirimycin], in assay [2], the IC50 – broadly, the point on the concentration scale where inhibition reaches its midpoint – was under 20 µM.

As to `CCCCN1C[C@H](NC(C)=O)[C@@H](O)[C@H](O)[C@H]1CO` [NB-NAG], the “inhibition of glycolipid biosynthesis” value in assay [1] is given as “do not act as inhibitors”.

For the compound `CCCCN1C[C@H](O)[C@@H](O)[C@@H](O)[C@H]1CO` [NB-DGJ, N-butyldeoxygalactonojirimycin], the IC50 turned out to be 3.4 µM in assay [3] and 370 µM in assay [4]. Also, the Ki (commonly a dissociation constant, usually derived from enzyme kinetics or from competition with a known ligand) in assay [5] worked out at 85 µM; in assay [6], 40 µM.

On to `CCCCCN1CC(O)C(O)C(O)C1CO` [Example 3, 3,4,5-Piperidinetriol, 1-pentyl-2-(hydroxymethyl)-, (2S,3R,4R,5S)], for which the IC50 in assay [7] was determined as 4 µM. Take `CCCCN1CC(O)C(O)C(O)C1CO` [Example 5, 3,4,5-Piperidinetriol, 1-butyl-2-hydroxymethyl)-, (2S,3S,4R,5S)]: the inhibition constant Ki in assay [5] turned out to be 8000 µM.

Regarding `CCCCN1C[C@@H](O)[C@@H](O)[C@H](O)[C@H]1CO` [NB-DMJ], in assay [1], the “inhibition of glycolipid biosynthesis” value was “do not act as inhibitors”.

These data come from patent US9199935B2, “Pharmaceutically active piperidine derivatives” (Acetelion Pharmaceuticals Ltd., priority 2001, dated 2015).
